A short description of data set [1]: Cytotoxicity, EZ4U Cell Proliferation and Cytotoxicity Assay. It is filed as cell-based, human. The conditions noted are these: human. As for the experimental part:
(§1) All compounds have no intrinsic toxicity in the concentration range up to 100 μM (Figure 8) in HeLa cells, with the exception of 16a and berberine, which are toxic at concentrations above 20 μM. 16a is slightly toxic (CC50 ~ 100 μM) and differs from non-toxic 10a in the presence of a double bond in the sultone cycle. The original berberine 1 is toxic to HeLa cells with a cytotoxic concentration (CC50) of 20 μM, which is consistent with the literature data.
(§2) Cytotoxicity of the compounds to HeLa (human cervical cancer) cell line was examined using the EZ4U Cell Proliferation and Cytotoxicity Assay (Biomedica, Vienna, Austria), according to the manufacturer’s protocols. The cells were grown in Iscove’s modified Dulbecco’s medium (IMDM) with 40 μg/mL gentamicin, 50 IU/mL penicillin, 50 μg/mL streptomycin (MP Biomedicals, Waltham, MA, USA), and 10% of fetal bovine serum (Biolot, Saint Petersburg, Russia) in a 5% CO2 atmosphere. After the formation of a 30–50%-monolayer, the tested compounds were added to the medium. The volume of the added reagents was 1/100 of the total volume of the culture medium, and the amount of DMSO was 1% of the final volume. Control cells were grown in the presence of 1% DMSO. The cell culture was monitored for 3 days.

For data set [2], the target named is T1, tyrosyl-DNA phosphodiesterase 1 (Tdp1) (Homo sapiens, UniProt Q9NUW8).
T1 construct: Purified Tdp1 (1.5 nM) triggered the reaction
The data set is described as follows: Tdp1 activity, fluorescent oligonucleotide biosensor (FAM/BHQ1) assay. The format is biochemical. Conditions: purified Tdp1 1.5 nM, 50 nM biosensor; read-out: Tdp1 inhibiting activity IC50. As for the experimental part: In this work, newly synthesized sultones were tested for their inhibition of Tdp1. Tdp1 activity was measured using a fluorescent biosensor as previously described. The biosensor is an oligonucleotide with a fluorophore (FAM) at the 5′-end and a fluorescence quencher (BHQ1) at the 3′-end. Due to the activity of the enzyme, the quencher is removed, which leads to an increase in the fluorescence intensity. Inhibitors prevent the removal of the quencher, thus reducing the fluorescence intensity.
Tdp1 activity was detected, as described in the work in Reference, and consists of fluorescence intensity measurement in a reaction of quencher removal from a fluorophore quencher–coupled DNA oligonucleotide catalyzed by Tdp1. The reaction was carried out at different concentrations of inhibitors (the control samples contained 1% of DMSO). The reaction mixtures contained Tdp1 buffer (50 mM Tris-HCl pH 8.0, 50 mM NaCl, and 7 mM β-mercaptoethanol), 50 nM biosensor, and an inhibitor being tested. Purified Tdp1 (1.5 nM) triggered the reaction. The biosensor (5′-[FAM] AAC GTC AGGGTC TTC C [BHQ]-3′) was synthesized in the Laboratory of Biomedical Chemistry at the Institute of Chemical Biology and Fundamental Medicine (Novosibirsk, Russia).
The reactions were incubated on a POLARstar OPTIMA fluorimeter (BMG LABTECH, GmbH, Ortenberg, Germany) to measure fluorescence every 55 s (ex. 485/em. 520 nm) during the linear phase (here, data from minute 0 to minute 8). The values of IC50 were determined using a six-point concentration response curve in a minimum of three independent experiments and were calculated using MARS Data Analysis 2.0 (BMG LABTECH, Ortenberg, Germany).

The target of data set [3] is T1, tyrosyl-DNA phosphodiesterase 1 (Tdp1). Conditions: previous work of the group; read-out: Tdp1 IC50 of previously synthesized berberine derivatives; cited from earlier work.
In data set [4] the test system is HeLa cells. The experiment in a line: Cytotoxicity, EZ4U Cell Proliferation and Cytotoxicity Assay. It is filed as cell-based, human. How it is done: as §1, §2
Data set [5] deals with HeLa cells. The experiment in a line: Sensitization of cells to topotecan cytotoxicity by Tdp1 inhibitors. It is filed as cell-based, human. The conditions noted are these: inhibitor at 20 μM, varied topotecan concentrations; Mann-Whitney U-test, p = 0.05. As for the experimental part:
In this work, we also tested the ability of the berberrubine sultones to sensitize cells to the action of topotecan. For this, we chose a non-toxic concentration of Tdp1 inhibitors at 20 μM and varied the concentrations of topotecan.
as §2

Where “and” joins values, the source holds several entries; their conditions need not be identical. Equal values may be shown once. Entries after “also recorded” stand apart in the source; their conditions may differ. Read-outs that look alike come from different tables or passages of the source.

Broadly, the CC50 is the concentration giving 50% cytotoxicity. One may read the IC50 as the concentration at which inhibition is half-maximal.

T1 sequence (Q9NUW8 whole entry): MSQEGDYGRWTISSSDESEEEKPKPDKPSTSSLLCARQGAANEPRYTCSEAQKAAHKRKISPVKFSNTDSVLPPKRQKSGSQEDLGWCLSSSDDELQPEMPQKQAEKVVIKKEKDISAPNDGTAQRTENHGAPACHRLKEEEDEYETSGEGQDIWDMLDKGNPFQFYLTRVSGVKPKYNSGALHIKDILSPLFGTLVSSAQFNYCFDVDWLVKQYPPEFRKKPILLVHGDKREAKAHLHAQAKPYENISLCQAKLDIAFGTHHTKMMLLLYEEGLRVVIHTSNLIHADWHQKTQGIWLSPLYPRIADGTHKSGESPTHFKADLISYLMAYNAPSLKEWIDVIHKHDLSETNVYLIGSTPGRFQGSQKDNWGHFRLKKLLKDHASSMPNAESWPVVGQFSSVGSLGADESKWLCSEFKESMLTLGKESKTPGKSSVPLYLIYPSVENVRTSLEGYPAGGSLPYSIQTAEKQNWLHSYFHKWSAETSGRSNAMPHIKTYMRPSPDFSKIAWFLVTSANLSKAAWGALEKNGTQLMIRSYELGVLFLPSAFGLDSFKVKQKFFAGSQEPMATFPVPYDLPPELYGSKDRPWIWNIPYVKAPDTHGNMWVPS

`COc1ccc2c3c1OS(=O)(=O)C(C)C3N1CCc3cc4c(cc3C1=C2)OCO4` (stereo not drawn) [10b, 19-Methoxy-23-methyl-8,10,21-trioxa-22λ⁶-thia-2-azahexacyclo[14.7.1.0^2,¹⁴.0⁵,¹^3.0⁷,¹¹.0^2⁰,^2⁴]tetracosa-5,7(11),12,14,16,18,20(24)-heptaene-22,22-dione] had a CC50 at 3 days in data set [1] of more than 100000 nM. Moreover, the IC50 in data set [2] was found to be 2130 ± 160 nM.

On to `CCCC1C2c3c(c(Br)cc(OC)c3OS1(=O)=O)C=C1c3cc4c(cc3CCN12)OCO4` (stereo not drawn) [18d, 17-Bromo-19-methoxy-23-propyl-8,10,21-trioxa-22λ⁶-thia-2-azahexacyclo[14.7.1.0^2,¹⁴.0⁵,¹^3.0⁷,¹¹.0^2⁰,^2⁴]tetracosa-5,7(11),12,14,16,18,20(24)-heptaene-22,22-dione], for which the 50% cytotoxic concentration (CC50) at 3 days in data set [1] was more than 100000 nM. In addition, the IC50 in data set [2] was determined as 780 ± 30 nM.

`CCS(=O)(=O)Oc1c(OC)ccc2c1CN1CCc3cc4c(cc3C1C2)OCO4` (stereo not drawn) [21b]: the IC50 in data set [3] was more than 15000 nM.

The compound `CCCC1C2c3c(ccc(OC)c3OS1(=O)=O)C=C1c3cc4c(cc3CCN12)OCO4` (stereo not drawn) [10d, 19-Methoxy-23-propyl-8,10,21-trioxa-22λ⁶-thia-2-azahexacyclo[14.7.1.0^2,¹⁴.0⁵,¹^3.0⁷,¹¹.0^2⁰,^2⁴]tetracosa-5,7(11),12,14,16,18,20(24)-heptaene-22,22-dione] registered a CC50 at 3 days in data set [1] of more than 100000 nM. The IC50 in data set [2] came out at 1120 ± 180 nM.

In the case of `COc1cc(Br)c2c3c1OS(=O)(=O)C(C)C3N1CCc3cc4c(cc3C1=C2)OCO4` (stereo not drawn) [18b, 17-Bromo-19-methoxy-23-methyl-8,10,21-trioxa-22λ⁶-thia-2-azahexacyclo[14.7.1.0^2,¹⁴.0⁵,¹^3.0⁷,¹¹.0^2⁰,^2⁴]tetracosa-5,7(11),12,14,16,18,20(24)-heptaene-22,22-dione], in data set [1], the CC50 at 3 days was more than 100000 nM. Further, the concentration for half-maximal inhibition (IC50) in data set [2] is 1130 ± 200 nM.

`CCC1C2c3c(ccc(OC)c3OS1(=O)=O)C=C1c3cc4c(cc3CCN12)OCO4` (stereo not drawn) [10c, 23-Ethyl-19-methoxy-8,10,21-trioxa-22λ⁶-thia-2-azahexacyclo[14.7.1.0^2,¹⁴.0⁵,¹^3.0⁷,¹¹.0^2⁰,^2⁴]tetracosa-5,7(11),12,14,16,18,20(24)-heptaene-22,22-dione] displayed a CC50 at 3 days in data set [1] of more than 100000 nM. In addition, the IC50 in data set [2] was 5500 ± 100 nM.

In the case of `COc1ccc2cc3[n+](cc2c1OC)CCc1cc2c(cc1-3)OCO2` [berberine 1, berberine], the “concentration above which toxic to HeLa cells” value in the data set on HeLa cells [4] (HeLa cells) is given as “above 20 μM”. Also, the CC50 at 3 days in data set [1] (HeLa cells, EZ4U test, 3 days, read-out: CC50 HeLa) stood at 20000 nM.

Regarding `COc1ccc2c(c1OS(C)(=O)=O)CN1CCc3cc4c(cc3C1C2)OCO4` (stereo not drawn) [21a], the IC50 in data set [3] was more than 15000 nM.

For `COc1cc(Br)c2c3c1OS(=O)(=O)CC3N1CCc3cc4c(cc3C1=C2)OCO4` (stereo not drawn) [18a, 17-Bromo-19-methoxy-8,10,21-trioxa-22λ⁶-thia-2-azahexacyclo[14.7.1.0^2,¹⁴.0⁵,¹^3.0⁷,¹¹.0^2⁰,^2⁴]tetracosa-5,7(11),12,14,16,18,20(24)-heptaene-22,22-dione], the CC50 at 3 days in data set [1] was more than 100000 nM. Further, the IC50 in data set [2] was 925 nM and 920 nM.

`COc1ccc2c3c1OS(=O)(=O)CC3N1CCc3cc4c(cc3C1=C2)OCO4` (stereo not drawn) [10a, 19-Methoxy-8,10,21-trioxa-22λ⁶-thia-2-azahexacyclo[14.7.1.0^2,¹⁴.0⁵,¹^3.0⁷,¹¹.0^2⁰,^2⁴]tetracosa-5,7(11),12,14,16,18,20(24)-heptaene-22,22-dione] had a cytotoxic concentration (CC50) at 3 days in data set [1] of more than 100000 nM. Also, the IC50 in data set [2] is 1530 ± 180 nM.

Turning to `CCC1C2c3c(c(Br)cc(OC)c3OS1(=O)=O)C=C1c3cc4c(cc3CCN12)OCO4` (stereo not drawn) [18c, 17-Bromo-23-ethyl-19-methoxy-8,10,21-trioxa-22λ⁶-thia-2-azahexacyclo[14.7.1.0^2,¹⁴.0⁵,¹^3.0⁷,¹¹.0^2⁰,^2⁴]tetracosa-5,7(11),12,14,16,18,20(24)-heptaene-22,22-dione], in the data set with HeLa cells [5], the “sensitizing effect on topotecan cytotoxicity” value is “most pronounced and statistically significant; also recorded: enhances the cytotoxic effect of topotecan”. The compound further registered a CC50 at 3 days in data set [1] of more than 100000 nM. Moreover, in data set [2], the IC50 stood at 560 ± 20 nM.

As to `COc1ccc2c3c1OS(=O)(=O)C=C3N1CCc3cc4c(cc3C1=C2)OCO4` [16a, 19-Methoxy-8,10,21-trioxa-22λ⁶-thia-2-azahexacyclo[14.7.1.0^2,¹⁴.0⁵,¹^3.0⁷,¹¹.0^2⁰,^2⁴]tetracosa-1(23),5,7(11),12,14,16,18,20(24)-octaene-22,22-dione], the “concentration above which toxic to HeLa cells” value with HeLa cells [4] (human, 3 days) was “above 20 μM”. Also, the 50% cytotoxic concentration (CC50) at 3 days in data set [1] was approximately 100000 nM. Also, the IC50 in data set [2] stood at 2500 ± 400 nM.

The values are drawn from article PMC8037669, “Discovery of Novel Sultone Fused Berberine Derivatives as Promising Tdp1 Inhibitors” (Molecules, 2021).
